Experimental data taken from US11466013B2 (Betta Pharmaceuticals Co., LTD, priority 2018, dated 2022).

What was measured:
[1] = target: ERK2 (Homo sapiens, UniProt P28482); experiment: Kinase assay (Caliper, FAM-labeled peptide), ERK2; assay type: biochemical
Method: (§1) The compound was diluted to the desired concentration with DMSO, transferred 100 μL to a 96-well plate, and performed a gradient dilution 10 μL of compound from each well was taken and mixed with 90 μL of kinase buffer, and then transferred 5 μL from each well to a 384-well plate. Kinase and FAM-labeled peptide and ATP were added to 1× kinase alkaline buffer to obtain 2.5× enzyme solution and 2.5× peptide solution, 10 μL of 2.5× enzyme solution was added to the 384-well assay plate. After incubating for 10 minutes at room temperature, 10 μL of 2.5× peptide solution was added to the 384-well plate. After reacting for a specific time at […], 25 μL of termination buffer was added to stop reaction. After reading the collected data on Caliper, the data was converted to inhibition percentage. Inhibition percentage=(maximum value−conversion value)/(maximum value−minimum value)*100.
(§2) The “maximum” is the DMSO control, the “minimum” indicates the low control.
(§3) Graphpad Prism software was used to perform curve fitting and obtain IC50 value.

[2] = target: ERK1 (Homo sapiens, UniProt P27361); experiment: Kinase assay (Caliper, FAM-labeled peptide), ERK1; assay type: biochemical
Chain of ERK1 (P27361 whole entry): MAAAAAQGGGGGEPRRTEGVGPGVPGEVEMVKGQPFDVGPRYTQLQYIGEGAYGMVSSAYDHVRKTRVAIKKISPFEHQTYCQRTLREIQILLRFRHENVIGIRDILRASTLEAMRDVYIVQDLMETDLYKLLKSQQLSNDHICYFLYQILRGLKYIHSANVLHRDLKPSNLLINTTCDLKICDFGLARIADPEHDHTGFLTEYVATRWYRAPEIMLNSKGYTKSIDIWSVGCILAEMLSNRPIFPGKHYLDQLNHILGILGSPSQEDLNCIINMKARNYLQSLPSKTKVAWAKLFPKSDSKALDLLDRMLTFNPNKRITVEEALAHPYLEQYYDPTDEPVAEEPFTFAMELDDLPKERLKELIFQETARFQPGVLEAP
Method: as §1, §2, §3

Chain of ERK2 (P28482 whole entry): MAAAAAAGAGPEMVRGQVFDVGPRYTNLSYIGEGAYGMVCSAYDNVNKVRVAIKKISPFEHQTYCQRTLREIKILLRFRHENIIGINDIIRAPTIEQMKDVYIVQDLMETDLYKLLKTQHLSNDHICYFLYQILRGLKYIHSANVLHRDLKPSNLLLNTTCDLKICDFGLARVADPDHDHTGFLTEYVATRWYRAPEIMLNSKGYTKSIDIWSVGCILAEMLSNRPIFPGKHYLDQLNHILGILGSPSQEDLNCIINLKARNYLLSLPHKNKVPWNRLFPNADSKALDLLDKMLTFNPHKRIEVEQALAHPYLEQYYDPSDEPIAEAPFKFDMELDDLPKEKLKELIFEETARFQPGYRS

With `CC(C)Nc1cc(-c2c[nH]c(C(=O)NCc3ccccc3CO)c2)c(Cl)cn1` [Example 1, 4-(5-chloro-2-(isopropylamino)pyridin-4-yl)-N-(2-(hydroxymethyl)benzyl)-1H-pyrrole-2-methyl amide] as the molecule, how does the IC50 [1] read?
Its IC50 is 3.4 nM.

What about the IC50 [2] of the same molecule?
The IC50 was 3 nM.

With `CC(C)Nc1cc(-c2cnc(C(=O)NCc3ccccc3CO)s2)c(Cl)cn1` [Example 3, 5-(5-chloro-2-(isopropylamino)pyridin-4-yl)-N-(2-(hydroxymethyl)benzyl) thiazole-2-formamide] as the molecule, how does the IC50 [1] read?
Its IC50 is 0.7 nM.

And the IC50 [2]?
The IC50 was 0.9 nM.

With `CC(C)Nc1cc(-c2cnc(C(=O)NCc3ccc(F)cc3CO)s2)c(Cl)cn1` [Example 4, 5-(5-chloro-2-(isopropylamino)pyridin-4-yl)-N-(4-fluoro-2-(hydroxymethyl)benzyl) thiazole-2-formamide] as the molecule, how does the IC50 [1] read?
Its IC50 is 1.8 nM.

What about the IC50 [2] of the same molecule?
Its IC50 is 1.8 nM.

What does the source list for `CC(C)Nc1cc(-c2cnc(C(=O)NCc3cccc(F)c3CO)s2)c(Cl)cn1` [Example 5, 5-(5-chloro-2-(isopropylamino)pyridin-4-yl)-N-(3-fluoro-2-(hydroxymethyl)benzyl) thiazole-2-formamide]?
IC50 [1]: 1.2 nM; IC50 [2]: 1.5 nM

For `CC(C)Nc1cc(-c2cc3n(c2)CCN(Cc2ccccc2CO)C3=O)c(Cl)cn1` [Example 14, 7-(5-chloro-2-(isopropylamino)pyridin-4-yl)-2-(2-(hydroxymethyl)benzyl)-3,4-dihydropyrrolo[1,2-a] pyrazine-1(2H)-one], which IC50 [1] is on record?
Its IC50 is 0.6 nM.

And the IC50 [2]?
Its IC50 is 0.7 nM.

Which results are given for `CC(C)Nc1cc(-c2cc3n(c2)CCN(Cc2cc(F)c(F)cc2CO)C3=O)c(Cl)cn1` [Example 19, 7-(5-chloro-2-(isopropylamino)pyridine-4-yl)-2-(4,5-difluoro-2-(hydroxymethyl)benzyl)-3,4-dihydropyrrolo[1,2-a]pyrazine-1(2H)-one]?
IC50 [1]: 0.6 nM; IC50 [2]: 0.3 nM

For `CC(C)Nc1cc(-c2cc3n(c2)CC2(CN(C)C2)CN(Cc2ccccc2CO)C3=O)c(Cl)cn1` [Example 25], which IC50 [1] is on record?
The IC50 was 0.84 nM.

What about the IC50 [2] of the same molecule?
The IC50 was 1.3 nM.

Which results are given for `CC(C)Nc1cc(-c2cc3n(c2)CC2(COC(C)(C)OC2)CN(Cc2ccccc2CO)C3=O)c(Cl)cn1` [Example 26, 8-(5-Chloro-2-(isopropylamino)pyridin-4-yl)-2-(2-(hydroxymethyl)benzyl)-2′,2′-dimethyl-2,3-dihydro-1H,5H-spiro[pyrrolo[1,2-a][1,4]diazepine-4,5′-[1,3]dioxane]-1-one]?
IC50 [1]: 1.4 nM; IC50 [2]: 1.3 nM

`CC(C)Nc1cc(-c2cc3n(c2)CC2(COC(C)(C)OC2)CN(Cc2cc(F)ccc2CO)C3=O)c(Cl)cn1` [Example 28, 8-(5-chloro-2-(isopropylamino)pyridin-4-yl)-2-(5-fluoro-2-(hydroxymethyl)benzyl)-2′,2′-dimethyl-2,3-dihydro-1h,5h-spiro[pyrrolo [1,2-a][1,4]diazepine-4,5′-[1,3]dioxane]-1-one] was tested. Which IC50 [1] did it give?
The IC50 was 1.6 nM.

What about the IC50 [2] of the same molecule?
The IC50 was 0.9 nM.

Which results are given for `O=C1c2cc(-c3cc(NC4COC4)ncc3Cl)cn2CCN1Cc1cc(F)ccc1CO` [Example 30, 7-(5-Chloro-2-(oxetan-3-ylamino)pyridin-4-yl)-2-(5-fluoro-2-(hydroxymethyl)benzyl)-3,4-dihydropyrrolo[1,2-a]pyrazine-1(2H)-one]?
IC50 [1]: 0.2 nM; IC50 [2]: 0.31 nM

`O=C1c2cc(-c3cc(NC4CCOC4)ncc3Cl)cn2CCN1Cc1cc(F)ccc1CO` (centres unmarked) [Example 31, 7-(5-Chloro-2-((tetrahydrofuran-3-yl)amino)pyridin-4-yl)-2-(5-fluoro-2-(hydroxymethyl)benzyl)-3,4-dihydropyrrolo[1,2-a]pyrazine-1(2H)-one] was tested. Which IC50 [1] did it give?
The IC50 was 0.32 nM.

What about the IC50 [2] of the same molecule?
Its IC50 is 0.3 nM.

Which IC50 [1] does the source give for `Cc1cnc(NC2COC2)nc1-c1cc2n(c1)CCN(Cc1cc(F)ccc1CO)C2=O` [Example 32, 2-(5-Fluoro-2-(hydroxymethyl)benzyl)-7-(5-methyl-2-(oxetan-3-ylamino)pyrimidine-4-yl)-3,4-dihydropyrrolo[1,2-a]pyrazine-1(2H)-one] here?
The IC50 was 0.27 nM.

What about the IC50 [2] of the same molecule?
The IC50 was 0.44 nM.

What does the source list for `COC[C@H]1Cn2cc(-c3cc(NC(C)C)ncc3Cl)cc2C(=O)N1Cc1cc(F)ccc1CO` [Example 34, (R)-7-(5-chloro-2-(isopropylamino)pyridin-4-yl)-2-(5-fluoro-2-(hydroxymethyl)benzyl)-3-(methoxymethyl)-3,4-dihydropyrrolo[1,2-a]pyrazine-1(2H)-one]?
IC50 [1]: 0.4 nM; IC50 [2]: 0.2 nM

Which results are given for `CC(C)Nc1cc(-c2cc3n(c2)CC(CO)CN(Cc2cc(F)ccc2CO)C3=O)c(Cl)cn1` (centres unmarked) [Example 42, 8-(5-chloro-2-(isopropylamino)pyridin-4-yl)-2-(5-fluoro-2-(hydroxymethyl)benzyl)-4-(hydroxymethyl)-2,3,4,5-tetrahydro-1H-pyrrolo[1,2-a][1,4]diazepine-1-one]?
IC50 [1]: 1.6 nM; IC50 [2]: 2.5 nM

Which IC50 [1] does the source give for `CC(C)Nc1cc(-c2cc3n(c2)CC2(COCOC2)CN(Cc2cc(F)ccc2CO)C3=O)c(Cl)cn1` [Example 43, 8-(5-Chloro-2-(isopropylamino)pyridin-4-yl)-2-(5-fluoro-2-(hydroxymethyl)benzyl)-2,3-dihydro-1H,5H-spiro[pyrrolo[1,2-a][1,4]diazepine-4,5′-[1,3]dioxane]-1-one] here?
The IC50 was 0.5 nM.

And the IC50 [2]?
Its IC50 is 0.6 nM.

`COC[C@H]1Cn2cc(-c3cc(NC(C)C)ncc3Cl)nc2C(=O)N1Cc1cc(F)ccc1CO` [Example 46, (R)-2-(5-chloro-2-(isopropylamino)pyridin-4-yl)-7-(5-fluoro-2-(hydroxymethyl)benzyl)-6-(methoxymethyl)-6,7-dihydroimidazo[1,2-a]pyrazine-8-(5H)-one] was tested. Which IC50 [1] did it give?
The IC50 was 1.4 nM.

What about the IC50 [2] of the same molecule?
Its IC50 is 2.8 nM.

Which IC50 [1] does the source give for `COC[C@H]1Cn2cc(-c3c(Cl)cnc(Nc4ccnn4C)c3F)cc2C(=O)N1Cc1cc(F)ccc1CO` [Example 47, (H)-7-(5-chloro-3-fluoro-2-((1-methyl-1H-pyrazol-5-yl)amino)pyridin-4-yl)-2-(5-fluoro-2-(hydroxymethyl)benzyl)-3-(methoxymethyl)-3,4-dihydropyrrolo[1,2-a]pyrazine-1(2H)-ketone] here?
Its IC50 is 0.9 nM.

For `Cc1ccccc1Nc1ncc(C)c(-c2cc3n(c2)CCN(Cc2cc(F)ccc2CO)C3=O)n1` [Example 49], which IC50 [1] is on record?
Its IC50 is 0.8 nM.

What about the IC50 [2] of the same molecule?
The IC50 was 0.9 nM.

With `COCC1(CO)CN(Cc2cc(F)ccc2CO)C(=O)c2cc(-c3cc(NC(C)C)ncc3Cl)cn2C1` (centres unmarked) [Example 56, 8-(5-chloro-2-(isopropylamino)pyridin-4-yl)-2-(5-fluoro-2-(hydroxymethyl)benzyl)-4-(hydroxymethyl)-4-(methoxymethyl)-2,3,4,5-4,5-tetrahydro-1h-pyrrolo [1,2-a][1,4]diazepine-1-one] as the molecule, how does the IC50 [1] read?
Its IC50 is 0.64 nM.

What about the IC50 [2] of the same molecule?
Its IC50 is 0.95 nM.

`COC(=O)C1Cn2cc(-c3cc(NC(C)C)ncc3Cl)cc2C(=O)N1Cc1cc(F)ccc1CO` (centres unmarked) [Example 57, Methyl 7-(5-chloro-2-(isopropylamino)pyridin-4-yl)-2-(5-fluoro-2-(hydroxymethyl)benzyl)-1-oxo-1,2,3,4-tetrahydropyrrolo [1,2-a]pyrazine-3-carboxylic acid ethyl ester] was tested. Which IC50 [1] did it give?
Its IC50 is 0.5 nM.

And the IC50 [2]?
Its IC50 is 0.9 nM.

How did the IC50 [1] turn out when `CC(C)Nc1cc(-c2cc3n(c2)C[C@H](CO)N(Cc2cc(F)ccc2CO)C3=O)c(Cl)cn1` [Example 59, (R)-7-(5-chloro-2-(isopropylamino)pyridin-4-yl)-2-(5-fluoro-2-(hydroxymethyl)benzyl)-3-(hydroxymethyl)-3,4-dihydropyrrolo[1,2-a] pyrazine-1(2H)-one] was run?
Its IC50 is 0.49 nM.

What about the IC50 [2] of the same molecule?
The IC50 was 0.51 nM.

`COC[C@H]1Cn2cc(-c3cc(NC4COC4)ncc3Cl)cc2C(=O)N1Cc1cc(F)ccc1CO` [Example 60, (R)-7-(5-chloro-2-(oxacyclobutane-3-ylamino)pyridine-4-yl)-2-(5-fluoro-2-(hydroxymethyl)benzyl)-3-(methoxymethyl)-3,4-dihydropyrrolo[1,2-a] pyrazine-1(2H)-one] was tested. Which IC50 [1] did it give?
The IC50 was 0.46 nM.

And the IC50 [2]?
Its IC50 is 0.54 nM.

Which results are given for `COC[C@H]1Cn2cc(-c3cc(NC4CCOC4)ncc3Cl)cc2C(=O)N1Cc1cc(F)ccc1CO` (stereo partly drawn) [Example 61, (3R)-7-(5-chloro-2-((tetrahydrofuran-3-yl)amino)pyridine-4-yl)-2-(5-fluoro-2-(hydroxymethyl)benzyl)-3-(methoxymethyl)-3,4-dihydropyrrolo[1,2-a] pyrazine-1(2H)-one]?
IC50 [1]: 0.41 nM; IC50 [2]: 0.38 nM

Which results are given for `COC[C@H]1Cn2cc(-c3cc(NC4CC(F)(F)C4)ncc3Cl)cc2C(=O)N1Cc1cc(F)ccc1CO` [Example 63, (R)-7-(5-chloro-2-((3,3-difluorocyclobutyl)amino)pyridine-4-yl)-2-(5-fluoro-2-(hydroxymethyl)benzyl)-3-(methoxymethyl)-3,4-dihydropyrrolo[1,2-a] pyrazine-1(2H)-one]?
IC50 [1]: 1.6 nM; IC50 [2]: 1.5 nM

Which results are given for `COC[C@H]1Cn2cc(-c3cc(NCC(C)(C)O)ncc3Cl)cc2C(=O)N1Cc1cc(F)ccc1CO` [Example 65, (R)-7-(5-chloro-2-((2-hydroxy-2-methylpropyl)amino)pyridine-4-yl)-2-(5-fluoro-2-(hydroxymethyl)benzyl)-3-(methoxymethyl)-3,4-dihydropyrrolo[1,2-a] pyrazine-1(2H)-one]?
IC50 [1]: 1.6 nM; IC50 [2]: 0.97 nM

For `COC[C@H]1Cn2cc(-c3cc(Nc4c(C)cnn4C)ncc3Cl)cc2C(=O)N1Cc1cc(F)ccc1CO` [Example 97, (R)-7-(5-chloro-2-((1,4-dimethyl-1h-pyrazole-5-yl)amino)pyridine-4-yl)-2-(5-fluoro-2-(hydroxymethyl)benzyl)-3-(methoxymethyl)-3,4-dihydropyrrolo[1,2-a] pyrazine-1(2H)-one], which IC50 [1] is on record?
The IC50 was 0.97 nM.
